In patent US4889871A, “Alkoxy-substituted dihydrobenzopyran-2-carboxylate derivatives” (G. D. Searle & Co., priority 1988, dated 1989):
pIC50: −log10 of the molar value. Like-named read-outs stand apart in the source and are kept apart here.

Key:
LTB4 receptor = molecular target: T1, LTB4 receptor (Homo sapiens, UniProt Q15722); assay: LTB4 receptor binding assay ((3H) LTB4, human neutrophils); conditions: Table 1
T1 construct: Neutrophils were purified from venous blood of normal human donors; endogenous in cells; host or cells: purified human blood neutrophils (intact cells)
Description: Neutrophils (4-6×10^6) in 1 ml Hanks' balanced salt solution containing 10 mM HEPES buffer (HBSS), pH 7.4 and 30 μM nordihydroguaiaretic acid were incubated with 0.6×10^-9 M (^3 H) LTB4 in the presence or absence of test compounds. The incubation was carried out at 0° C. for 45 minutes and terminated by adding 5 ml of ice-cold HBSS followed by rapid filtration of incubation mixture under vacuum through GF/C glass fiber filters. The filters were further washed with 10 ml HBSS and radioactivity was determined. Specific binding was defined as the difference between total binding and nonspecific binding which was not displaced by 10^-7 M unlabeled LTB4. All data refer to specific binding.

human neutrophils [1] = assay: Human neutrophil degranulation assay (LTB4-induced, myeloperoxidase release); format: cell-based; conditions: Table 1, LTB4 (5×10^-8 M)
Description: Neutrophils were purified from venous blood of normal human donors using standard techniques of dextran sedimentation, centrifugation on Ficoll-paque® (Pharmacia) or Histopaque® sterile solution (Sigma) and hypotonic lysis of erythrocytes (Boyum, A., Isolation of Leukocytes From Human Blood: Further Observations. Scand. J. Lab. Clin. Invest., 21 (Suppl. 97): 31, 1968). The purity of isolated neutrophils was >95%.
Neutrophil degranulation was determined by measuring the release of myeloperoxidase activity into the incubation medium. Neutrophils (3×10^6) in 1 ml HBSS solution were preincubated with cytochalasin B (5 μg) at 37° C. for 5 minutes, followed by preincubation with test compounds for 7 minutes. Neutrophils were then incubated for 2 to 20 minutes with either LTB4 (5×10^-8 M) or the chemotactic peptide f-met-leu-phe (5×10^-6 M) to induce degranulation. Following incubation, samples were centrifuged and myeloperoxidase was extracted from the cell pellets by sonication in phosphate buffer containing 0.4% Triton X-100. Triton X-100 was also added to the supernatants to a concentration of 0.4%. The supernatants and the pellet - extracts were then assayed spectrophotometrically for myeloperoxidase activity by determining the rate of decomposition of H2 O2 with o-dianisidine as hydrogen donor as described by Renlund, et al. (Renlund, D. G., MacFarlane, J. L., Christensen, R. D., Lynch, R. E., and Rothstein, G., A Quantitative And Sensitive Method For Measurement Of Myeloperoxidase, Clinical Research 28:75A, 1980). Myeloperoxidase activity released into the supernatant was expressed as the percent of the average total activity (pellet plus supernatant).

human neutrophils [2] = assay: Modified Boyden chamber chemotaxis (LTB4, human neutrophils); format: cell-based; conditions: Neutrophil; for inhibition at 1 µM: 10^-6 M
Description: Human neutrophils were isolated from citrated peripheral blood using standard techniques of dextran sedimentation, followed by centrifugation on Histopaque® sterile solution (Sigma) or Ficoll-paque® (Pharmacia) and hypotonic lysis of erythrocytes. A final cell suspension of 3.4×10^6 neutrophils/ml of HEPES-buffered Hanks balanced salt solution (HBSS, pH 7.3) was added to the upper well (0.8 ml) of a modified Boyden chamber (blind well). The lower well (0.2 ml), separated by a polycarbonate membrane (Nuleopore Corp.), contained HBSS or 3×10^-8 M LTB4 in the presence of absence of test compound. Following a 90 minute incubation at 37° C. in 5% CO2 -95% air, cells from the lower well were lysed and nuclei counted in a Model S-Plus-IV Coulter Counter. Percent inhibition was calculated from cell counts corrected for random migration by subtracting the mean of the HBSS control.

LTD4 receptor = molecular target: T2, LTD4 receptor (Cavia porcellus, UniProt Q2NNR5); assay: LTD4 receptor binding assay using guinea pig lung membrane preparations; conditions: for Receptor Binding LTD4 IC50: Table 1, results are from Table 3, 10^-5 M
T2 construct: from tissue; host or cells: lung membranes of male Hartley guinea pigs
T2 sequence (Q2NNR5 1-340): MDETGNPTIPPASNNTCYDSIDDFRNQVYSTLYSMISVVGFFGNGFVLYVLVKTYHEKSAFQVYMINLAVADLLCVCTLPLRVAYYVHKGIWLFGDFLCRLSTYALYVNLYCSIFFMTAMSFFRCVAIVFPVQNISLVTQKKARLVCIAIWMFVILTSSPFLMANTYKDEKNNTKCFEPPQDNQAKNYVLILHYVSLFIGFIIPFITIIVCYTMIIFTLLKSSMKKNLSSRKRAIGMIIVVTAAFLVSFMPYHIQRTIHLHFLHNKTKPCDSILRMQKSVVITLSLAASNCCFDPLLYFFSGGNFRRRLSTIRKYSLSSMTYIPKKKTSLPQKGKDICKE
Description: MEMBRANE PREPARATIONS: For each membrane preparation, 10-11 male Hartley guinea pigs, weighing less than 350 gm, were sacrificed by guillotine. The lungs were rapidly removed and placed in ice-cold 50 mM Trisma 7.0 buffer. After all the lungs were collected, each was probed free of bronchial tissue to at least the level of tertiary branching as observed through a dissecting lamp. The tissue was minced with a razor blade on a damp paper towel and placed into fresh ice-cold Trisma 7.0 buffer. When all the tissues had been processed, they were pooled, drained and weighed. Nine volumes of cold buffer were added and the tissue was polytroned for 6-10 second bursts with a 1 minute cool down period in an ice bath between each burst. The homogenate was filtered through a gauze pad and centrifuged at 1085× g for 15 minutes at 4° C. Supernatants were saved and centrifuged at 40,000× g for 20 minutes at 4° C. This time, supernatants were discarded and the pellets were resuspended in 30-35 ml fresh Trisma 7.0 buffer by 1-10 second bursts with the polytron. The materials were centrifuged again at 40,000× g. Supernatants were again discarded. Each pellet was resuspended again with approximately 7 ml buffer. All this material was pooled into a 100 ml polypropylene container and stirred with a magnetic stirring bar. The tubes were rinsed with small amounts of buffer and the rinse was added to the membrane preparation. The homogenized membranes were aliquoted into 1.5 ml microfuge tubes and frozen at -70° C. Three aliquots were submitted for protein determinations by FPB (fluorescamine protein binding) assay.
Unless otherwise indicated, all binding experiments were performed in a final incubation volume of 250 μl. […] Both materials were received in solutions. […] Both solutions were brought to appropriate assay concentrations by dilution in assay buffer consisting of 50 mM Trisma 7.4 with 5 mM L-cysteine and 20 mM CaCl2. Membranes were also diluted with this assay buffer. […] Diluent was added to all other appropriate control tubes. Incubations were conducted for 30 minutes at 25° C. in a shaking water bath. Termination of the reaction was achieved by pouring the incubate over 2.5 cm Whatman GF/C filters soaked in assay buffer and set over the ports of Millipore filter vacuum manifolds. Filters were rinsed with 4 ml ice cold assay buffer 3 times. The filters were removed, placed in 10 ml Aquasol scintillation cocktail and allowed to cool in the dark for 2 hours prior to counting. All samples were corrected for background and isotope decay before converting DPM determination to mass.
These values were logit-transformed and linear regression was performed on the dose-response data. All dose-response sets used to calculate IC50 values contained data from 3-6 compound concentrations. […] IC50 values were calculated from the regression equation for the line.
male guinea pig lung homogenate which was aliquoted and stored at
-70° C. The particular preparation used to test the compounds of
Protein concentrations in these assays were adjusted
to provide aproximately 0.1 nM receptor in the presence of lnM ^3
HLTD4. Incubation was conducted for 30 min.
at 24° C. and filtration methods were used to separate bound from
tested were intially solubilized in DMSO. Each compound was evaluated at
dose of 10 μM (10^-5 M) in triplicate in 2 separate assays. The

[3] = read-out: LTD4 Receptor Binding Activity, 10 μM
[4] = read-out: LTD4 Receptor Binding Percent Inhibition, Test #1, 10 μM, triplicate, 30 min, 24° C.
[5] = read-out: LTD4 Receptor Binding Percent Inhibition, Test #2, 10 μM, triplicate, 30 min, 24° C.
[6] = read-out: Chemotaxis (Boyden) percent inhibition

T1 sequence (Q15722 whole entry): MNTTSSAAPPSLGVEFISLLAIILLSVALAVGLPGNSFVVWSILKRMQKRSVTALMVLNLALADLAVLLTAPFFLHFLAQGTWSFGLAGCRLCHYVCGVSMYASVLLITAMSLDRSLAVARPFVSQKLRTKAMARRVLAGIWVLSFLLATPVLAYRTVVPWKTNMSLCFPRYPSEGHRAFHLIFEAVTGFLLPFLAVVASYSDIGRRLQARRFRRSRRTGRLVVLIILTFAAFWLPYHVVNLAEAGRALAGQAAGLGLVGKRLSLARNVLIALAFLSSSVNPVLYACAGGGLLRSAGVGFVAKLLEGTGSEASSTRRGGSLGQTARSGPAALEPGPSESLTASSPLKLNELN

| SMILES | pIC50 (LTB4 receptor) | pIC50 (human neutrophils [1]) | pIC50 (human neutrophils [2]) | inhibition at 1 µM (human neutrophils [2]; [6]) | further results |
| --- | --- | --- | --- | --- | --- |
| CCCc1c(OCCCOc2ccc3c(c2CCC)OC(C)(CCC(=O)O)CC3=O)ccc(C(C)=O)c1OC (stereo not drawn) [Example 16, 7-[3-(4-acetyl-3-methoxy-2-propylphenoxy)propoxy]-3,4-dihydro-2-methyl-4-oxo-8-propyl-2H-1-benzopyran-2-propanoic acid] | 6.60 | 6.26 | 6.19 |  | Receptor Binding LTD4 IC50 (LTD4 receptor): Inactive; inhibition at 10 µM (LTD4 receptor; [3]): < 45%; inhibition at 10 µM (LTD4 receptor; [4]): 16.5%; inhibition at 10 µM (LTD4 receptor; [5]): 24.1% |
| CCCc1c(OCCCOc2ccc(C(C)=O)c(OC)c2CCC)ccc2c1OC(C(=O)NC)CC2 (stereo not drawn) [Example 8, 7-[3-(4-acetyl-3-methoxy-2-propylphenoxy)propoxy]-3,4-dihydro-N-methyl-8-propyl-2H-1-benzopyran-2-carboxamide] | 5.74 |  |  | 12% |  |
| CCCc1c(OCCCOc2ccc3c(c2)OC(C(=O)O)CC3)ccc(C(C)=O)c1OC (stereo not drawn) [Example 6, 7-[3-(4-acetyl-3-methoxy-2-propylphenoxy)propoxy]-3,4-dihydro-2H-1-benzopyran-2-carboxylic acid] | 5.59 | 5.10 |  | 48% | Receptor Binding LTD4 IC50 (LTD4 receptor): Inactive; inhibition at 10 µM (LTD4 receptor; [3]): < 45%; inhibition at 10 µM (LTD4 receptor; [4]): 1.63%; inhibition at 10 µM (LTD4 receptor; [5]): 26% |
| CCCc1c(OCCCOc2ccc(C(C)=O)c(OCC)c2CCC)ccc2c1OC(C(=O)O)CC2 (stereo not drawn) [Example 21, 7-[3-(4-acetyl-3-ethoxy-2-propylphenoxy)-propoxy]-3,4-dihydro-8-propyl-2H-1-benzopyran-2-carboxylic acid] | 6.00 |  |  |  |  |
| CCCc1c(OCCCOc2ccc(C(=O)C(C)C)c(OC)c2CCC)ccc2c1OC(C(=O)O)CC2 (stereo not drawn) [Example 19, 3,4-dihydro-7-[3-[3-methoxy-4-(2-methyl-1-oxopropyl)-2-propylphenoxy]propoxy]-8-propyl-2H-1-benzopyran-2-carboxylic acid] | 5.92 | 5.30 |  | 15% |  |
| CCCc1c(OC2CCC(Oc3ccc(C(C)=O)c(OC)c3CCC)C2)ccc2c1OC(C(=O)O)CC2 (stereo not drawn) [Example 4, 7-[[3-(4-acetyl-3-methoxy-2-propylphenoxy)cyclopentyl]oxy]-3,4-dihydro-8-propyl-2H-1-benzopyran-2-carboxylic acid] | 5.30 | 5.57 |  |  | inhibition at 0.01 µM (human neutrophils [2]; 10^-8 M, read-out: Chemotaxis (Boyden) percent inhibition): 62% |
| CCCc1c(OCC#CCOc2ccc3c(c2CCC)OC(C)(CCC(=O)O)CC3=O)ccc(C(C)=O)c1OC (stereo not drawn) [Example 17] | 6.10 | 5.68 |  | 31% |  |
| CCCc1c(OCCCOc2ccc3c(=O)cc(CCC(=O)O)oc3c2CCC)ccc(C(C)=O)c1OC [Example 22, 7-[3-(4-acetyl-3-methoxy-2-propylphenoxy)propoxy]-4-oxo-8-propyl-4H-1-benzopyran-2-propanoic acid] | 6.30 | 5.80 | 5.92 |  |  |
| CCCc1c(OCC(O)COc2ccc3c(=O)cc(C(=O)O)oc3c2CCC)ccc(C(C)=O)c1O (stereo not drawn) [FPL 55712, reference compound] |  |  |  |  | pIC50 (LTD4 receptor): 4.98; inhibition at 10 µM (LTD4 receptor; read-out: LTD4 Receptor Binding Activity): > 45%; inhibition at 10 µM (LTD4 receptor; read-out: LTD4 Receptor Binding Percent Inhibition, Test #1): 54.7%; inhibition at 10 µM (LTD4 receptor; read-out: LTD4 Receptor Binding Percent Inhibition, Test #2): 47% |
| CCCc1c(OCCCOc2ccc(C(C)=O)c(OC)c2CCC)ccc2c1CC(C(=O)O)CC2 (stereo not drawn) [Example 18, 7-[3-(4-acetyl-3-methoxy-2-propylphenoxy)propoxy]-1,2,3,4-tetrahydro-8-propyl-2-naphthalenecarboxylic acid] | 6.43 | 5.59 |  |  | inhibition at 10 µM (human neutrophils [2]; 10^-5 M, read-out: Chemotaxis (Boyden) percent inhibition): 87% |
| CCCc1c(OCCCOc2ccc(C(C)=O)c(OC)c2CC2CC2)ccc2c1OC(C(=O)O)CC2 (stereo not drawn) [Example 3, 7-[3-[4-acetyl-2-(cyclopropylmethyl)-3-methoxyphenoxy]propoxy]-3,4-dihydro-8-propyl-2H-1-benzopyran-2-carboxylic acid] | 6.72 | 6.74 | 6.70 |  |  |
| C=CCc1c(OCCCOc2ccc3c(c2CCC)OC(C(=O)O)CC3)ccc(C(C)=O)c1OC (stereo not drawn) [Example 5, 7-[3-[4-acetyl-3-methoxy-2-(2-propenyl)phenoxy]propoxy]-3,4-dihydro-8-propyl-2H-1-benzopyran-2-carboxylic acid] | 7.00 | 6.40 | 6.30 |  |  |
